Laboratory results: PubChem BioAssay (NCI)
Several values for one entry are separate records, joined by “and”; a condition that tells them apart may be missing. Equal entries are not always repeated.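 These data come from cells grown in 96-well plates and exposed to compound for 48 hours at five concentrations. At the GI50, growth is halved. At the TGI there is no net growth.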

Tests used:
Test in all cases: NCI tumour cell line growth inhibition, 48 h
EKVX NSCLC = tested on: EKVX NSCLC
SF-268 CNS = tested on: SF-268 CNS
NCI/ADR-RES ovarian = tested on: NCI/ADR-RES ovarian
HOP-62 NSCLC = tested on: HOP-62 NSCLC
T-47D breast = tested on: T-47D breast
DU-145 prostate = tested on: DU-145 prostate
MOLT-4 leukemia = tested on: MOLT-4 leukemia
COLO 205 colon = tested on: COLO 205 colon
BT-549 breast = tested on: BT-549 breast
PC-3 prostate = tested on: PC-3 prostate

## Cn1cc(-c2csc(-c3ccc(Cl)cc3)n2)c2cccnc21
EKVX NSCLC
  GI50: 2.85 µM
  TGI: 26.1 µM
SF-268 CNS
  GI50: 15.4 µM
  TGI: 34 µM
NCI/ADR-RES ovarian
  GI50: 15.8 µM
  TGI: 34.4 µM
HOP-62 NSCLC
  GI50: 17.2 µM
  TGI: 32.4 µM
T-47D breast
  GI50: 5.17 µM
  TGI: 36.4 µM
DU-145 prostate
  GI50: 15.3 µM
  TGI: 28.9 µM
MOLT-4 leukemia
  GI50: 12.4 µM
  TGI: 38.6 µM
COLO 205 colon
  GI50: 13.7 µM
  TGI: 26.6 µM
BT-549 breast
  GI50: 18.6 µM
  TGI: 51.9 µM
PC-3 prostate
  GI50: 11.4 µM
  TGI: 34.2 µM

## COc1ccc2c(CN3CCCC[C@H]3O)cc3cc4c(cc3c2c1)OCO4
EKVX NSCLC
  GI50: 0.817 µM
  TGI: 9.44 µM
SF-268 CNS
  GI50: 0.417 µM
  TGI: 5.74 µM
NCI/ADR-RES ovarian
  GI50: 0.435 µM
  TGI: 6.94 µM
HOP-62 NSCLC
  GI50: 0.541 µM
  TGI: 3.52 µM
T-47D breast
  GI50: 0.393 µM
  TGI: 5.46 µM
DU-145 prostate
  GI50: 0.475 µM
  TGI: 7.24 µM
MOLT-4 leukemia
  GI50: 0.283 µM
  TGI: 4.55 µM
COLO 205 colon
  GI50: 0.185 µM
  TGI: 1.36 µM
BT-549 breast
  GI50: 1.21 µM
  TGI: 4.5 µM
PC-3 prostate
  GI50: 0.467 µM
  TGI: 3.53 µM

## CCCCS(=O)(=O)c1cc(Nc2ccc(O)c3c2C(=O)c2ccccc2C3=O)ccc1C
SF-268 CNS
  GI50: 57.7 µM
  TGI: > 100 µM
NCI/ADR-RES ovarian
  GI50: > 100 µM
  TGI: > 100 µM
HOP-62 NSCLC
  GI50: 27.8 µM
  TGI: > 100 µM
T-47D breast
  GI50: > 100 µM
  TGI: > 100 µM
DU-145 prostate
  GI50: 5.01 µM
  TGI: > 100 µM
MOLT-4 leukemia
  GI50: > 100 µM
  TGI: > 100 µM
BT-549 breast
  GI50: > 100 µM
  TGI: > 100 µM
PC-3 prostate
  GI50: > 100 µM
  TGI: > 100 µM

## COc1ccc(C(=O)Cn2c(C(=O)c3ccc(Cl)cc3)nc(-c3ccccc3)c2-c2ccccc2)cc1
EKVX NSCLC
  GI50: > 100 µM
  TGI: > 100 µM
SF-268 CNS
  GI50: > 100 µM
  TGI: > 100 µM
NCI/ADR-RES ovarian
  GI50: > 100 µM
  TGI: > 100 µM
HOP-62 NSCLC
  GI50: > 100 µM
  TGI: > 100 µM
T-47D breast
  GI50: > 100 µM
  TGI: > 100 µM
DU-145 prostate
  GI50: > 100 µM
  TGI: > 100 µM
MOLT-4 leukemia
  GI50: > 100 µM
  TGI: > 100 µM
COLO 205 colon
  GI50: > 100 µM
  TGI: > 100 µM
BT-549 breast
  GI50: > 100 µM
  TGI: > 100 µM
PC-3 prostate
  GI50: > 100 µM
  TGI: > 100 µM

## CC(C)(O)c1cc(Nc2cc(Oc3cn(C4CC4)nc3C3CCOCC3)ccn2)ccn1
EKVX NSCLC
  GI50: > 100 µM
  TGI: > 100 µM
SF-268 CNS
  GI50: > 100 µM
  TGI: > 100 µM
NCI/ADR-RES ovarian
  GI50: > 100 µM
  TGI: > 100 µM
HOP-62 NSCLC
  GI50: > 100 µM
  TGI: > 100 µM
T-47D breast
  GI50: 23.6 µM
  TGI: > 100 µM
DU-145 prostate
  GI50: > 100 µM
  TGI: > 100 µM
MOLT-4 leukemia
  GI50: 91.7 µM
  TGI: > 100 µM
COLO 205 colon
  GI50: 60.9 µM
  TGI: > 100 µM
BT-549 breast
  GI50: 56.7 µM
  TGI: > 100 µM
PC-3 prostate
  GI50: 88.1 µM
  TGI: > 100 µM

## CN(Cc1cnc2nc(N)nc(N)c2n1)c1c(Cl)cc(C(=O)NC(CCC(=O)O)C(=O)O)cc1Cl (stereo unspecified)
EKVX NSCLC
  TGI: > 100 µM
SF-268 CNS
  GI50: < 0.0169 µM
  TGI: > 100 µM
NCI/ADR-RES ovarian
  GI50: < 0.01 µM
  TGI: > 100 µM
HOP-62 NSCLC
  GI50: 0.0287 µM
  TGI: > 100 µM
T-47D breast
  TGI: > 100 µM
DU-145 prostate
  GI50: < 0.01 µM
  TGI: > 100 µM
MOLT-4 leukemia
  GI50: < 0.0201 µM
  TGI: > 100 µM
COLO 205 colon
  GI50: 0.08 µM
  TGI: > 100 µM
BT-549 breast
  GI50: 1.4 µM
  TGI: > 100 µM
PC-3 prostate
  GI50: < 0.01 µM
  TGI: > 100 µM

## O=C(O)CCN1C(=S)CSC1=S
EKVX NSCLC
  TGI: > 100 µM
SF-268 CNS
  TGI: > 100 µM
NCI/ADR-RES ovarian
  TGI: > 100 µM
HOP-62 NSCLC
  TGI: > 100 µM
T-47D breast
  TGI: > 100 µM
DU-145 prostate
  TGI: > 100 µM
MOLT-4 leukemia
  TGI: > 100 µM
COLO 205 colon
  TGI: > 100 µM
BT-549 breast
  TGI: > 100 µM
PC-3 prostate
  TGI: > 100 µM

## COC(=O)c1c(C(=O)O)c(-c2ccccc2)c(-c2ccccc2)c(-c2ccccc2)c1-c1ccccc1
EKVX NSCLC
  GI50: > 100 µM
  TGI: > 100 µM
SF-268 CNS
  GI50: > 100 µM
  TGI: > 100 µM
NCI/ADR-RES ovarian
  GI50: > 100 µM
  TGI: > 100 µM
HOP-62 NSCLC
  GI50: > 100 µM
  TGI: > 100 µM
T-47D breast
  GI50: 75.7 µM
  TGI: > 100 µM
DU-145 prostate
  GI50: > 100 µM
  TGI: > 100 µM
MOLT-4 leukemia
  GI50: > 100 µM
  TGI: > 100 µM
COLO 205 colon
  GI50: > 100 µM
  TGI: > 100 µM
BT-549 breast
  GI50: > 100 µM
  TGI: > 100 µM
PC-3 prostate
  GI50: > 100 µM
  TGI: > 100 µM

## COC(=O)N[C@@H](C)CNc1nccc(-c2cn(C(C)C)nc2-c2cc(Cl)cc(NS(C)(=O)=O)c2F)n1
SF-268 CNS
  GI50: > 100 µM
  TGI: > 100 µM
NCI/ADR-RES ovarian
  GI50: > 100 µM
  TGI: > 100 µM
HOP-62 NSCLC
  GI50: > 100 µM
  TGI: > 100 µM
T-47D breast
  GI50: > 100 µM
  TGI: > 100 µM
DU-145 prostate
  GI50: > 93 µM
  TGI: > 100 µM
MOLT-4 leukemia
  GI50: 50.9 µM
  TGI: > 100 µM
COLO 205 colon
  GI50: < 0.01 µM
  TGI: > 100 µM
BT-549 breast
  GI50: > 100 µM
  TGI: > 100 µM
PC-3 prostate
  GI50: > 100 µM
  TGI: > 100 µM

## Cc1c(-c2ccc(-c3ccccc3F)cc2)nc2ccc(F)cc2c1C(=O)O
EKVX NSCLC
  GI50: 77 µM and 53.3 µM
  TGI: 173 µM and 448 µM
SF-268 CNS
  TGI: 173 µM and 866 µM
NCI/ADR-RES ovarian
  GI50: 8.96 µM and 17.2 µM
  TGI: 170 µM and 377 µM
HOP-62 NSCLC
  GI50: 0.5 µM
  TGI: 35 µM and 199 µM
T-47D breast
  GI50: 10.2 µM and 79.5 µM
  TGI: 259 µM and 792 µM
DU-145 prostate
  GI50: 0.867 µM and 1.18 µM
  TGI: 119 µM and 343 µM
MOLT-4 leukemia
  GI50: 0.5 µM
  TGI: 66.7 µM and 71.7 µM and 294 µM
COLO 205 colon
  GI50: 17.4 µM and 3.81 µM
  TGI: 97.7 µM and 234 µM
BT-549 breast
  GI50: 17.4 µM and 57.4 µM
  TGI: 137 µM and 849 µM
PC-3 prostate
  GI50: 0.27 µM and 0.75 µM
  TGI: 103 µM and 429 µM

## CCOC(=O)c1sc(NC(=O)COc2ccc(/C=C3\CCc4cc(OC)ccc4C3=O)cc2)nc1C
EKVX NSCLC
  GI50: 18.5 µM
  TGI: 53.3 µM
SF-268 CNS
  GI50: 11.4 µM
  TGI: 26.5 µM
NCI/ADR-RES ovarian
  GI50: 8.49 µM
  TGI: 37.5 µM
HOP-62 NSCLC
  GI50: 15.2 µM
  TGI: 30.6 µM
T-47D breast
  GI50: 9.13 µM
  TGI: 30.7 µM
DU-145 prostate
  GI50: 12.8 µM
  TGI: 26.4 µM
MOLT-4 leukemia
  GI50: 1.76 µM
  TGI: 15.3 µM
COLO 205 colon
  GI50: 15.5 µM
  TGI: 30 µM
BT-549 breast
  GI50: 1.4 µM
  TGI: 17.7 µM
PC-3 prostate
  GI50: 10.2 µM
  TGI: > 57.3 µM

## CC(=O)/C(=N\N=C(N)N)c1ccccc1
EKVX NSCLC
  TGI: > 100 µM
SF-268 CNS
  TGI: > 100 µM
NCI/ADR-RES ovarian
  TGI: > 100 µM
HOP-62 NSCLC
  TGI: > 100 µM
T-47D breast
  TGI: > 100 µM
DU-145 prostate
  TGI: > 100 µM
MOLT-4 leukemia
  TGI: > 100 µM
COLO 205 colon
  TGI: > 100 µM
BT-549 breast
  TGI: > 100 µM
PC-3 prostate
  TGI: > 100 µM

## O=C1C=C(NCCc2ccccc2)c2ccccc2C1=O
EKVX NSCLC
  TGI: 20.8 µM
SF-268 CNS
  TGI: 23.1 µM
NCI/ADR-RES ovarian
  TGI: 23 µM
HOP-62 NSCLC
  TGI: 4.89 µM
T-47D breast
  TGI: 40.1 µM
DU-145 prostate
  TGI: 3.13 µM
MOLT-4 leukemia
  TGI: 64.8 µM
COLO 205 colon
  TGI: 3.6 µM
BT-549 breast
  TGI: 3.77 µM
PC-3 prostate
  TGI: 26.2 µM

## CCOC(=O)C(Cc1cc(OC)c(CC(C(=O)OCC)C(=O)OCC)cc1OC)C(=O)OCC
EKVX NSCLC
  TGI: > 100 µM
SF-268 CNS
  TGI: > 100 µM
NCI/ADR-RES ovarian
  TGI: > 100 µM
HOP-62 NSCLC
  TGI: > 100 µM
T-47D breast
  TGI: > 100 µM
DU-145 prostate
  TGI: > 100 µM
MOLT-4 leukemia
  TGI: > 100 µM
COLO 205 colon
  TGI: > 100 µM
BT-549 breast
  TGI: > 100 µM
PC-3 prostate
  TGI: > 100 µM
